# Patent publication US20250270191A1, “QUINOLONE BCL6 BIFUNCTIONAL DEGRADERS” (Treeline Biosciences, Inc., priority 2022, published 2025)
# Target: T1, Human BCL6 protein (N-terminal HiBiT tagged BCL6 in HT1080 cells) (Homo sapiens, UniProt P41182+Q96SW2)
# T1 construct: Human BCL6 protein coding open reading frame; expressed in transfected cells; host or cells: HT1080 (ATCC CCL-121), stably transduced with lentivirus pLV-UBC-N-HiBiT-BCL6-PGK-puro
# Test: HiBiT based BCL6 degradation assay
# Format: cell-based
# Details: HT1080 cells expressing N-terminal HiBiT tagged BCL6; 5 hours incubation; BCL6 degradation normalized with DMSO control
# Method in brief: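 HT1080 cells stably expressing N-terminal HiBiT-BCL6 were treated with compound dilution series for 5 h at 37° C. in RPMI 1640 with 10% FBS. HiBiT lytic luminescence read after 15 min; degradation normalized to DMSO, with curves fitted by four-parameter logistic model.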
row,Ymin (5 hr),SMILES
1,++++ (Ymin ≤ 25%),"CNC(=O)COc1cc2cc(Nc3nc(N4CCN(C[C@@H]5CCN(c6ccc7c(C8CCC(=O)NC8=O)nn(C)c7c6)C5)CC4)ncc3Cl)ccc2n(C)c1=O (stereo partly drawn) [Compound 306b, 2-((6-((5-chloro-2-(4-(((3S)-1-(3-(2,6-dioxopiperidin-3-yl)-1-methyl-1H-indazol-6-yl)pyrrolidin-3-yl)methyl)piperazin-1-yl)pyrimidin-4-yl)amino)-1-methyl-2-oxo-1,2-dihydroquinolin-3-yl)oxy)-N-methylacetamide]"
2,++++ (Ymin ≤ 25%),"CNC(=O)COc1cc2cc(Nc3nc(N4CCN(CC5CCN(c6cccc7c(C8CCC(=O)NC8=O)nn(C)c67)CC5)[C@H](C)C4)ncc3Cl)ccc2n(C)c1=O (stereo partly drawn) [Compound 308a, 2-((6-((5-chloro-2-((3R)-4-((1-(3-(2,6-dioxopiperidin-3-yl)-1-methyl-1H-indazol-7-yl)piperidin-4-yl)methyl)-3-methylpiperazin-1-yl)pyrimidin-4-yl)amino)-1-methyl-2-oxo-1,2-dihydroquinolin-3-yl)oxy)-N-methylacetamide]"
3,++++ (Ymin ≤ 25%),"CNC(=O)COc1cc2cc(Nc3nc(N4CCN(CC5CCN(c6cccc7c(C8CCC(=O)NC8=O)nn(C)c67)CC5)[C@@H](C)C4)ncc3Cl)ccc2n(C)c1=O (stereo partly drawn) [Compound 308b, 2-((6-((5-chloro-2-((3S)-4-((1-(3-(2,6-dioxopiperidin-3-yl)-1-methyl-1H-indazol-7-yl)piperidin-4-yl)methyl)-3-methylpiperazin-1-yl)pyrimidin-4-yl)amino)-1-methyl-2-oxo-1,2-dihydroquinolin-3-yl)oxy)-N-methylacetamide]"
4,+++ (25% < Ymin ≤ 50%),"CNC(=O)COc1cc2cc(Nc3nc(N4CCN(CC5CCN(c6ccc7c(C8CCC(=O)NC8=O)nn(C)c7c6)CC5)[C@H](C)C4)ncc3Cl)ccc2n(C)c1=O (stereo partly drawn) [Compound 309a, 2-((6-((5-chloro-2-((3R)-4-((1-(3-(2,6-dioxopiperidin-3-yl)-1-methyl-1H-indazol-6-yl)piperidin-4-yl)methyl)-3-methylpiperazin-1-yl)pyrimidin-4-yl)amino)-1-methyl-2-oxo-1,2-dihydroquinolin-3-yl)oxy)-N-methylacetamide]"
5,+++ (25% < Ymin ≤ 50%),"CNC(=O)COc1cc2cc(Nc3nc(N4CCN(CC5CCN(c6ccc7c(C8CCC(=O)NC8=O)nn(C)c7c6)CC5)[C@@H](C)C4)ncc3Cl)ccc2n(C)c1=O (stereo partly drawn) [Compound 309b, 2-((6-((5-chloro-2-((3S)-4-((1-(3-(2,6-dioxopiperidin-3-yl)-1-methyl-1H-indazol-6-yl)piperidin-4-yl)methyl)-3-methylpiperazin-1-yl)pyrimidin-4-yl)amino)-1-methyl-2-oxo-1,2-dihydroquinolin-3-yl)oxy)-N-methylacetamide]"
6,+++ (25% < Ymin ≤ 50%),"CNC(=O)COc1cc2cc(Nc3nc(N4CCC(CC5CN(c6cccc7c(C8CCC(=O)NC8=O)nn(C)c67)C5)CC4)ncc3Cl)ccc2n(C)c1=O (stereo not drawn) [Compound 310, 2-((6-((5-chloro-2-(4-((1-(3-(2,6-dioxopiperidin-3-yl)-1-methyl-1H-indazol-7-yl)azetidin-3-yl)methyl)piperidin-1-yl)pyrimidin-4-yl)amino)-1-methyl-2-oxo-1,2-dihydroquinolin-3-yl)oxy)-N-methylacetamide]"
7,++ (50% < Ymin ≤ 70%),"CNC(=O)COc1cc2cc(Nc3nc(N4CCN(CC5CCC6(CC5)CN(c5cccc7c(C8CCC(=O)NC8=O)nn(C)c57)C6)CC4)ncc3Cl)ccc2n(C(C)C)c1=O (stereo not drawn) [Compound 311, 2-((6-((5-chloro-2-(4-((2-(3-(2,6-dioxopiperidin-3-yl)-1-methyl-1H-indazol-7-yl)-2-azaspiro[3.5]nonan-7-yl)methyl)piperazin-1-yl)pyrimidin-4-yl)amino)-1-isopropyl-2-oxo-1,2-dihydroquinolin-3-yl)oxy)-N-methylacetamide]"
8,++ (50% < Ymin ≤ 70%),"CNC(=O)COc1cc2cc(Nc3nc(N4CCC[C@H](CN(C)c5ccc6c(C7CCC(=O)NC7=O)nn(C)c6c5)C4)ncc3Cl)ccc2n(C)c1=O (stereo partly drawn) [Compound 312a, 2-((6-((5-chloro-2-((3R)-3-(((3-(2,6-dioxopiperidin-3-yl)-1-methyl-1H-indazol-6-yl)(methyl)amino)methyl)piperidin-1-yl)pyrimidin-4-yl)amino)-1-methyl-2-oxo-1,2-dihydroquinolin-3-yl)oxy)-N-methylacetamide]"
9,++ (50% < Ymin ≤ 70%),"CNC(=O)COc1cc2cc(Nc3nc(N4CC[C@H](COc5ccc6c(C7CCC(=O)NC7=O)nn(C)c6c5)C4)ncc3Cl)ccc2n(C)c1=O (stereo partly drawn) [Compound 313a, 2-((6-((5-chloro-2-((3S)-3-(((3-(2,6-dioxopiperidin-3-yl)-1-methyl-1H-indazol-6-yl)oxy)methyl)pyrrolidin-1-yl)pyrimidin-4-yl)amino)-1-methyl-2-oxo-1,2-dihydroquinolin-3-yl)oxy)-N-methylacetamide]"
10,++ (50% < Ymin ≤ 70%),"CNC(=O)COc1cc2cc(Nc3nc(N4CCC(CN5CCN(C(=O)c6cccc(C7CCC(=O)NC7=O)c6)CC5)CC4)ncc3Cl)ccc2n(C)c1=O (stereo not drawn) [Compound 314, 2-((6-((5-chloro-2-(4-((4-(3-(2,6-dioxopiperidin-3-yl)benzoyl)piperazin-1-yl)methyl)piperidin-1-yl)pyrimidin-4-yl)amino)-1-methyl-2-oxo-1,2-dihydroquinolin-3-yl)oxy)-N-methylacetamide]"

# More lines, now with the values behind:
row,SMILES,Ymin (5 hr)
1,"CNC(=O)COc1cc2cc(Nc3nc(N4CCC[C@@H](COc5ccc6c(C7CCC(=O)NC7=O)nn(C)c6c5)C4)ncc3Cl)ccc2n(C)c1=O (stereo partly drawn) [Compound 302b, 2-((6-((5-chloro-2-((3R)-3-(((3-(2,6-dioxopiperidin-3-yl)-1-methyl-1H-indazol-6-yl)oxy)methyl)piperidin-1-yl)pyrimidin-4-yl)amino)-1-methyl-2-oxo-1,2-dihydroquinolin-3-yl)oxy)-N-methylacetamide]",++ (50% < Ymin ≤ 70%)
2,"CNC(=O)COc1cc2cc(Nc3nc(NC[C@@H]4CCCN(c5cccc6c(C7CCC(=O)NC7=O)nn(C)c56)C4)ncc3Cl)ccc2n(C)c1=O (stereo partly drawn) [Compound 303a, 2-((6-((5-chloro-2-((((3S)-1-(3-(2,6-dioxopiperidin-3-yl)-1-methyl-1H-indazol-7-yl)piperidin-3-yl)methyl)amino)pyrimidin-4-yl)amino)-1-methyl-2-oxo-1,2-dihydroquinolin-3-yl)oxy)-N-methylacetamide]",++ (50% < Ymin ≤ 70%)
3,"CNC(=O)COc1cc2cc(Nc3nc(NC[C@H]4CCCN(c5cccc6c(C7CCC(=O)NC7=O)nn(C)c56)C4)ncc3Cl)ccc2n(C)c1=O (stereo partly drawn) [Compound 303b, 2-((6-((5-chloro-2-((((3R)-1-(3-(2,6-dioxopiperidin-3-yl)-1-methyl-1H-indazol-7-yl)piperidin-3-yl)methyl)amino)pyrimidin-4-yl)amino)-1-methyl-2-oxo-1,2-dihydroquinolin-3-yl)oxy)-N-methylacetamide]",++ (50% < Ymin ≤ 70%)
4,"CNC(=O)COc1cc2cc(Nc3nc(NC[C@H]4CC[C@@H](Nc5cccc6c(C7CCC(=O)NC7=O)nn(C)c56)CC4)ncc3Cl)ccc2n(C)c1=O (stereo partly drawn) [Compound 304a, 2-((6-((5-chloro-2-((((1s,4s)-4-((3-(2,6-dioxopiperidin-3-yl)-1-methyl-1H-indazol-7-yl)amino)cyclohexyl)methyl)amino)pyrimidin-4-yl)amino)-1-methyl-2-oxo-1,2-dihydroquinolin-3-yl)oxy)-N-methylacetamide]",++ (50% < Ymin ≤ 70%)
5,"CNC(=O)COc1cc2cc(Nc3nc(NC[C@H]4CC[C@H](Nc5cccc6c(C7CCC(=O)NC7=O)nn(C)c56)CC4)ncc3Cl)ccc2n(C)c1=O (stereo partly drawn) [Compound 304b, 2-((6-((5-chloro-2-((((1r,4r)-4-((3-(2,6-dioxopiperidin-3-yl)-1-methyl-1H-indazol-7-yl)amino)cyclohexyl)methyl)amino)pyrimidin-4-yl)amino)-1-methyl-2-oxo-1,2-dihydroquinolin-3-yl)oxy)-N-methylacetamide]",++ (50% < Ymin ≤ 70%)
6,"CNC(=O)COc1cc2cc(Nc3nc(N4CCN(C[C@H]5CCN(c6cccc7c(C8CCC(=O)NC8=O)nn(C)c67)C5)CC4)ncc3Cl)ccc2n(C)c1=O (stereo partly drawn) [Compound 305a, 2-((6-((5-chloro-2-(4-(((3R)-1-(3-(2,6-dioxopiperidin-3-yl)-1-methyl-1H-indazol-7-yl)pyrrolidin-3-yl)methyl)piperazin-1-yl)pyrimidin-4-yl)amino)-1-methyl-2-oxo-1,2-dihydroquinolin-3-yl)oxy)-N-methylacetamide]",+++ (25% < Ymin ≤ 50%)
7,"CNC(=O)COc1cc2cc(Nc3nc(N4CCN(C[C@@H]5CCN(c6cccc7c(C8CCC(=O)NC8=O)nn(C)c67)C5)CC4)ncc3Cl)ccc2n(C)c1=O (stereo partly drawn) [Compound 305b, 2-((6-((5-chloro-2-(4-(((3S)-1-(3-(2,6-dioxopiperidin-3-yl)-1-methyl-1H-indazol-7-yl)pyrrolidin-3-yl)methyl)piperazin-1-yl)pyrimidin-4-yl)amino)-1-methyl-2-oxo-1,2-dihydroquinolin-3-yl)oxy)-N-methylacetamide]",+++ (25% < Ymin ≤ 50%)
8,"CNC(=O)COc1cc2cc(Nc3nc(N4CCN(C[C@H]5CCN(c6ccc7c(C8CCC(=O)NC8=O)nn(C)c7c6)C5)CC4)ncc3Cl)ccc2n(C)c1=O (stereo partly drawn) [Compound 306a, 2-((6-((5-chloro-2-(4-(((3R)-1-(3-(2,6-dioxopiperidin-3-yl)-1-methyl-1H-indazol-6-yl)pyrrolidin-3-yl)methyl)piperazin-1-yl)pyrimidin-4-yl)amino)-1-methyl-2-oxo-1,2-dihydroquinolin-3-yl)oxy)-N-methylacetamide]",+++ (25% < Ymin ≤ 50%)
